# Assay results from article PMC5665533, “Generation of G protein-coupled receptor antibodies differentially sensitive to conformational states” (PLoS ONE, 2017).
# Molecular target: T1, dopamine D1 receptor (D1R) (Homo sapiens, UniProt P21728)
# T1 construct: gene DRD1; endogenous full-length receptor in SK-N-SH neuroblastoma cells
# Assay: ELISA, agonist-induced receptor recognition by anti-D1R antibody, SK-N-SH cells
# Type: cell-based
# Details: 1 μM agonist; endogenous receptor
# T1 sequence (P21728 whole entry): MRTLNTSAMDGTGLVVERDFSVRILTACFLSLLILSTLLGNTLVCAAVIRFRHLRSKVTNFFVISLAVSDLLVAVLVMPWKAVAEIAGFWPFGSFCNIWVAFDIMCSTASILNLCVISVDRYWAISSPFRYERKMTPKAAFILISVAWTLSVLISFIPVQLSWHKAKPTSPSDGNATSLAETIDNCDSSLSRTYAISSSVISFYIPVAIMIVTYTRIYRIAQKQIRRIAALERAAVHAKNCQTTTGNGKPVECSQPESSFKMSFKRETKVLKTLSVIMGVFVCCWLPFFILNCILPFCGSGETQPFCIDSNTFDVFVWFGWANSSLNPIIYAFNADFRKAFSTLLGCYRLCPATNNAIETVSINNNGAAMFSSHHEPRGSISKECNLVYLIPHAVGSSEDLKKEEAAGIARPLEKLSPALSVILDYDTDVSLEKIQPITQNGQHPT
compound,measurement,value
C=CCN1CCc2c(cc(O)c(O)c2Cl)C(c2cccc(C)c2)C1 (stereo not shown) [SKF83822],"ELISA, agonist-induced receptor recognition by anti-D1R antibody, SK-N-SH cells","treatment with the dopamine D1 receptor (D1R) agonist, SKF83822"
